Legend:
Type in all cases: in vivo, human
[1] = test system: patient with painful rizarthrosis; experiment: Example 6: injection into painful joint base before surgery for rizarthrosis, postoperative pain
Experimental: A patient with painful rizarthrosis was scheduled for surgical treatment of the disease on week prior to the operation. the patient was injected with 1 ml of a physiological saline solution containing 0.9 mg capsaicin into the painful joint base without prior administration of local anesthetics. The massive pain was treated with ice packs and inter-muscular morphine.

[2] = test system: patient with hip osteoarthritis; experiment: Example 1: intra-articular hip infiltration one month before total hip prosthesis, postoperative pain
Experimental: A patient with hip osteoarthritis and pain for 2 years was not treatable anymore with conventional pain medication (NSAIDS, Paracetamol, opioids, etc.) or infiltration (corticosteroids, hyaluronic acid). Therefore the patient was treated with an infiltration into the hip joint under fluoroscopic control with 0.8 micrograms of Resiniferatoxin dissolved in 250 microliters of Ethanol and mixed with 5 ml buffer solution.
10 minutes prior to the injection a local anesthetic (5 ml lidocaine 2%) was applied under fluoroscopic control intra-articularly to prevent injection pain. Moderate post-injection pain after RTX was controlled with oral administration of morphine. One month later the patient still suffered from relevant impairment of hip mobility and peritrochanteric pain and was treated with implantation of a total hip prosthesis.

[3] = test system: patients with symptoms of frozen shoulders; experiment: Example 4: intra-articular treatment before arthroscopic capsular release, pain and mobility
Experimental: A series of 3 patients with symptoms of frozen shoulders (VAS >6) for at least six month were scheduled for arthroscopic capsular release. All patients were treated with an intra-articular treatment with 2 micrograms of resiniferatoxin dissolved in 10 ml of physiological salt solution containing 4 mM Ca^2+ with immediate prior administration (2.5 and 15 minutes prior to resiniferatoxin) of a local anesthetic (5 ml 0.25% ropivacaine) at 29, 32 and 40 days preoperatively.
Thereafter pain regressed 2 weeks after injection to a level below VAS 3 in all patients. The postoperative pain treatment after capsulotomy included 5 days of regional continuous anesthesia.

[4] = test system: patient with anterior cruciate ligament rupture with medial meniscal tear; experiment: Example 2: intra-articular treatment 3 weeks before cruciate ligament and meniscal repair, postoperative pain and range of motion
Experimental: A physiotherapist suffered a traumatic anterior cruciate ligament rupture with medial meniscal tear. Due to unacceptable symptoms of instability a surgical reconstruction was scheduled. During the waiting period for the operation 3 weeks preoperatively an intra-articular treatment with 2 micrograms of resiniferatoxin dissolved in Ringers lactate buffer at a concentration of 200 ng/ml with immediate prior administration (i.e. within 1 minute) of a local anesthetic (5 ml 0.5% bupivacaine) was applied.
Three weeks later a crucial ligament repair using patellar tendon autograft and arthroscopic meniscal repair was performed. Postoperative pain was restricted to the first 72 hours and below VAS 2 thereafter. Unexpectedly the passive range of motion was flex-extension of 130-0-0° 3 weeks after the operation and further improving thereafter with minimal (VAS 1) pain.

[5] = test system: patient with symptomatic hallux valgus; experiment: Example 5: intra-articular injection one month before hallux valgus surgery, postoperative pain; settings: 200 ng intra-articular one month preoperatively; 2 ml 2% Lidocaine 5 minutes prior; 1 patient
Experimental: A patient with symptomatic hallux valgus was scheduled for surgical treatment. One month preoperatively an intra articular injection 1 ml resiniferatoxin (200 ng) was administered into the interphalangeal join space with prior (5 minutes) periarticular anesthesia using 2 ml 2% Lidocaine.

[6] = test system: patients with transtendinous rotator cuff tears; experiment: Example 3: subacromial injection 2 to 6 weeks before arthroscopic cuff repair, postoperative pain and mobility
Experimental: A series of 5 patients with a mean age 62 years and transtendinous rotator cuff tears and having been scheduled for arthroscopic cuff repair was 2 to 6 weeks (13 days for two patients and 16,23 and 41 days for the other three patients) preoperatively treated with a subacromial injection of 0.4 microgram resiniferatoxin dissolved in 10 ml 2% lidocaine.
Postinjection pain was controlled with ice packs and NSAIDS. The postoperative pain protocol included 48 hours of interscalene continuous regional anesthesia. Thereafter pain was exceptionally low (VAS <2) in four out of five patients.

| Structure (SMILES) | pain after injection ([1]; 0.9 mg in 1 ml saline without prior local anesthetics, treated with ice packs and morphine) | postoperative pain ([1]; 0.9 mg injected on(e) week prior to the operation, 1 patient) | post-injection pain ([2]; 0.8 micrograms intra-articular hip, 5 ml lidocaine 2% 10 minutes prior, controlled with oral morphine) | need for per oral pain medication ([2]; after second postoperative day) | pain reported thereafter ([2]; after second postoperative day) | postoperative pain ([2]; after total hip prosthesis one month after 0.8 micrograms infiltration, 1 patient) | postoperative pain (VAS) ([2]; first postoperative day) | postoperative pain (VAS) ([2]; second postoperative day) | pain level (VAS) ([3]; 2 weeks after injection, before surgery, all 3 patients, 2 micrograms intra-articular with 4 mM Ca2+, 5 ml 0.25% ropivacaine prior, baseline VAS >6) | postoperative pain (VAS) ([3]; after 5 days of regional continuous anesthesia following capsulotomy, all patients) | maintenance of intraoperatively achieved mobility ([3]; after capsulotomy, all patients) | duration of postoperative pain ([4]; 2 micrograms intra-articular 3 weeks preoperatively, 5 ml 0.5% bupivacaine immediately prior, 1 patient) [h] | postoperative pain (VAS) ([4]; after the first 72 hours) | pain (VAS) ([4]; from 3 weeks after the operation, range of motion further improving) | need for pain medication after surgery [5] | postoperative pain (VAS) ([6]; after 48 hours of interscalene regional anesthesia, in four out of five patients, 0.4 microgram in 10 ml 2% lidocaine subacromial) | clinical signs of stiff or frozen shoulder ([6]; postoperative course up to 1 year follow up) | glenohumeral abduction ([6]; six weeks postoperatively) | pain upon passive external rotation ([6]; six weeks postoperatively, 5 patients) | passive external rotation, difference to contralateral side ([6]; six weeks postoperatively, all patients) [°] |
| --- | --- | --- | --- | --- | --- | --- | --- | --- | --- | --- | --- | --- | --- | --- | --- | --- | --- | --- | --- | --- |
| COc1cc(CNC(=O)CCCC/C=C/C(C)C)ccc1O [capsaicin] | massive pain | almost no postoperative pain | – | – | – | – | – | – | – | – | – | – | – | – | – | – | – | – | – | – |
| C=C(C)[C@]12C[C@@H](C)[C@@]34O[C@](Cc5ccccc5)(O[C@@H]1[C@@H]3C=C(COC(=O)Cc1ccc(O)c(OC)c1)C[C@]1(O)C(=O)C(C)=C[C@@H]41)O2 [resiniferatoxin] | – | – | Moderate | did not need any further per oral pain medication | virtually no pain | moderate to none | 5 | 2 | < 3 | < 3 | able to fully maintain their intraoperatively achieved mobility | ≤ 72 | < 2 | 1 | did not need further pain medication after the second day after surgery | < 2 | no clinical signs corresponding to a stiff or frozen shoulder were observed | at least 80 ° | none of the patients reported pain | ≤ 15 |

— patent publication US20250248968A1, “COMPOSITION COMPRISING CAPSAICIN OR A CAPSACINOID” (MESTEX AG, priority 2019, published 2025)
